Several values for one entry are separate records, joined by “and”; a condition that tells them apart may be missing. Equal values may be shown once.
Test system: BCR::ABL1 positive CML
Assay: Phase-1 study: haematological, cytogenetic and molecular response
Type: in vivo, human
Experimental: Haematological response evaluations were done on the first day of each cycle of therapy; molecular response on the first day of cycles 1, 2, 4, 7, 10, 13 and then every three months; cytogenetic response – at screening and on the first days of cycles 4, 7, 13 and every three months thereafter, provided that there was no major molecular response.
Cytogenetic response was assessed by differential staining of chromosomes and if uninformative, by fluorescent in situ hybridization (FISH). Mutations in BCR::ABL1 were assessed by Sanger and next generation sequencing (NGS). Sanger sequencing was done at each center; NGS analyses were done in the laboratory of Prof. Susan Branford, University of Adelaide. Discordances were resolved as described in Table S2. Molecular response was assessed using the ratio of BCR::ABL1 to ABL1 measured according to the IS [9].

Cc1ccc(C(=O)Nc2ccc(CN3CCN(C)CC3)c(C(F)(F)F)c2)cc1C#Cc1nnc2ccccn12 [vamotinib]
CCyR (Advanced phase CML (N = 5)): none and 0/5 | MCyR (Advanced phase CML (N = 5)): none and 0/5 | MMR (Advanced phase CML (N = 5)): 0/5 | subjects with BCR::ABL1^T315I who responded (BCR::ABL1^T315I): 5 of 16 subjects | CCyR achieved at treatment (Cohort 1 50 mg N=3): 0 no. (%) | CCyR by 6 months (Cohort 1 50 mg N=3): 0 no. (%) | CCyR by 12 months (Cohort 1 50 mg N=3): 0 no. (%) | CHR achieved at treatment (Cohort 1 50 mg N=3): 1 (50) no. (%) | CHR by the 3 months (Cohort 1 50 mg N=3): 0 no. (%) | CHR by the 6th months (Cohort 1 50 mg N=3): 0 no. (%) | CHR by the 12th months (Cohort 1 50 mg N=3): 1 (50) no. (%) | MCyR achieved at treatment (Cohort 1 50 mg N=3): 0 no. (%) | MCyR by 6 months (Cohort 1 50 mg N=3): 0 no. (%) | MCyR by 12 months (Cohort 1 50 mg N=3): 0 no. (%) | MMR achieved at treatment (Cohort 1 50 mg N=3): 0 no. (%) | MMR by 6 months (Cohort 1 50 mg N=3): 0 no. (%) | MMR by 12 months (Cohort 1 50 mg N=3): 0 no. (%) | MMR by 24 months (Cohort 1 50 mg N=3): 0 no. (%) | Subjects with loss of CCyR (Cohort 1 50 mg N=3): 0 no. (%) | Subjects with loss of CHR (Cohort 1 50 mg N=3): 0 no. (%) | Subjects with loss of MCyR (Cohort 1 50 mg N=3): 0 no. (%) | Subjects with loss of MMR (Cohort 1 50 mg N=3): 0 no. (%) | CCyR achieved at treatment (Cohort 2 100 mg N=3): 1 (33) no. (%) | CCyR by 6 months (Cohort 2 100 mg N=3): 0 no. (%) | CCyR by 12 months (Cohort 2 100 mg N=3): 0 no. (%) | CHR achieved at treatment (Cohort 2 100 mg N=3): 0 no. (%) | CHR by the 3 months (Cohort 2 100 mg N=3): 0 no. (%) | CHR by the 6th months (Cohort 2 100 mg N=3): 0 no. (%) | CHR by the 12th months (Cohort 2 100 mg N=3): 0 no. (%) | MCyR by 6 months (Cohort 2 100 mg N=3): 1 (33) no. (%) | MCyR by 12 months (Cohort 2 100 mg N=3): 1 (33) no. (%) | MMR achieved at treatment (Cohort 2 100 mg N=3): 1 (33) no. (%) | MMR by 6 months (Cohort 2 100 mg N=3): 0 no. (%) | MMR by 12 months (Cohort 2 100 mg N=3): 0 no. (%) | MMR by 24 months (Cohort 2 100 mg N=3): 1 (33) no. (%) | Subjects with loss of CCyR (Cohort 2 100 mg N=3): 0 no. (%) | Subjects with loss of CHR (Cohort 2 100 mg N=3): 0 no. (%) | Subjects with loss of MCyR (Cohort 2 100 mg N=3): 0 no. (%) | Subjects with loss of MMR (Cohort 2 100 mg N=3): 0 no. (%) | CCyR achieved at treatment (Cohort 3 200 mg N=11): 3 (30) no. (%) | CCyR by 6 months (Cohort 3 200 mg N=11): 2 (20) no. (%) | CCyR by 12 months (Cohort 3 200 mg N=11): 2 (20) no. (%) | CHR achieved at treatment (Cohort 3 200 mg N=11): 2 (40) no. (%) | CHR by the 3 months (Cohort 3 200 mg N=11): 2 (40) no. (%) | CHR by the 6th months (Cohort 3 200 mg N=11): 2 (40) no. (%) | CHR by the 12th months (Cohort 3 200 mg N=11): 2 (40) no. (%) | MCyR achieved at treatment (Cohort 3 200 mg N=11): 4 (50) no. (%) | MCyR by 6 months (Cohort 3 200 mg N=11): 3 (38) no. (%) | MCyR by 12 months (Cohort 3 200 mg N=11): 3 (38) no. (%) | MMR achieved at treatment (Cohort 3 200 mg N=11): 2 (18) no. (%) | MMR by 6 months (Cohort 3 200 mg N=11): 1 (9) no. (%) | MMR by 12 months (Cohort 3 200 mg N=11): 1 (9) no. (%) | MMR by 24 months (Cohort 3 200 mg N=11): 2 (18) no. (%) | Subjects with loss of CCyR (Cohort 3 200 mg N=11): 1 (33) no. (%) | Subjects with loss of CHR (Cohort 3 200 mg N=11): 2 (100) no. (%) | Subjects with loss of MCyR (Cohort 3 200 mg N=11): 1 (25) no. (%) | Subjects with loss of MMR (Cohort 3 200 mg N=11): 0 no. (%) | CCyR achieved at treatment (Cohort 4 400 mg N=12): 1 (8) no. (%) | CCyR by 6 months (Cohort 4 400 mg N=12): 1 (8) no. (%) | CCyR by 12 months (Cohort 4 400 mg N=12): 1 (8) no. (%) | CHR achieved at treatment (Cohort 4 400 mg N=12): 4 (57) no. (%) | CHR by the 3 months (Cohort 4 400 mg N=12): 2 (29) no. (%) | CHR by the 6th months (Cohort 4 400 mg N=12): 2 (29) no. (%) | CHR by the 12th months (Cohort 4 400 mg N=12): 4 (57) no. (%) | MCyR achieved at treatment (Cohort 4 400 mg N=12): 2 (19) no. (%) | MCyR by 6 months (Cohort 4 400 mg N=12): 2 (19) no. (%) | MCyR by 12 months (Cohort 4 400 mg N=12): 2 (19) no. (%) | MMR achieved at treatment (Cohort 4 400 mg N=12): 0 no. (%) | MMR by 6 months (Cohort 4 400 mg N=12): 0 no. (%) | MMR by 12 months (Cohort 4 400 mg N=12): 0 no. (%) | MMR by 24 months (Cohort 4 400 mg N=12): 0 no. (%) | Subjects with loss of CCyR (Cohort 4 400 mg N=12): 0 no. (%) | Subjects with loss of CHR (Cohort 4 400 mg N=12): 4 (100) no. (%) | Subjects with loss of MCyR (Cohort 4 400 mg N=12): 0 no. (%) | Subjects with loss of MMR (Cohort 4 400 mg N=12): 0 no. (%) | CCyR achieved at treatment (Cohort 5 500 mg N=3): 0 no. (%) | CCyR by 6 months (Cohort 5 500 mg N=3): 0 no. (%) | CCyR by 12 months (Cohort 5 500 mg N=3): 0 no. (%) | CHR achieved at treatment (Cohort 5 500 mg N=3): 0 no. (%) | CHR by the 3 months (Cohort 5 500 mg N=3): 0 no. (%) | CHR by the 6th months (Cohort 5 500 mg N=3): 0 no. (%) | CHR by the 12th months (Cohort 5 500 mg N=3): 0 no. (%) | MCyR achieved at treatment (Cohort 5 500 mg N=3): 0 no. (%) | MCyR by 6 months (Cohort 5 500 mg N=3): 0 no. (%) | MCyR by 12 months (Cohort 5 500 mg N=3): 0 no. (%) | MMR achieved at treatment (Cohort 5 500 mg N=3): 0 no. (%) | MMR by 6 months (Cohort 5 500 mg N=3): 0 no. (%) | MMR by 12 months (Cohort 5 500 mg N=3): 0 no. (%) | MMR by 24 months (Cohort 5 500 mg N=3): 0 no. (%) | Subjects with loss of CCyR (Cohort 5 500 mg N=3): 0 no. (%) | Subjects with loss of CHR (Cohort 5 500 mg N=3): 0 no. (%)

From paper PMC12141164, “Phase-1 study of vamotinib (PF-114), a 3rd generation BCR::ABL1 tyrosine kinase-inhibitor, in chronic myeloid leukaemia” (Annals of Hematology, 2025)
